Activity calls are given as the source filed them. The calls are words filed in the database; no cut-off is given here.
How the values were obtained:
[1] = test system: HepG2; experiment: Growth inhibition of human HepG2 cells after 72 hrs by trypan blue assay; type: functional; conditions: HepG2, 72 h
[2] = test system: HL-60; experiment: Growth inhibition of human HL60 cells after 72 hrs by trypan blue assay; type: functional; conditions: HL-60, 72 h
[3] = test system: HeLa; experiment: Growth inhibition of human HeLa cells after 72 hrs by trypan blue assay; type: functional
[4] = target: DNA topoisomerase 2-alpha (Homo sapiens) (UniProt P11388); experiment: Inhibition of human recombinant topoisomerase-2 alpha expressed in Escherichia coli assessed as reduction in supercoiled pBR322 DNA relaxation at 8 uM after 60 mins by ethidium bromide staining based agarose gel electrophoresis
Sequence of DNA topoisomerase 2-alpha (Homo sapiens) (P11388 whole entry): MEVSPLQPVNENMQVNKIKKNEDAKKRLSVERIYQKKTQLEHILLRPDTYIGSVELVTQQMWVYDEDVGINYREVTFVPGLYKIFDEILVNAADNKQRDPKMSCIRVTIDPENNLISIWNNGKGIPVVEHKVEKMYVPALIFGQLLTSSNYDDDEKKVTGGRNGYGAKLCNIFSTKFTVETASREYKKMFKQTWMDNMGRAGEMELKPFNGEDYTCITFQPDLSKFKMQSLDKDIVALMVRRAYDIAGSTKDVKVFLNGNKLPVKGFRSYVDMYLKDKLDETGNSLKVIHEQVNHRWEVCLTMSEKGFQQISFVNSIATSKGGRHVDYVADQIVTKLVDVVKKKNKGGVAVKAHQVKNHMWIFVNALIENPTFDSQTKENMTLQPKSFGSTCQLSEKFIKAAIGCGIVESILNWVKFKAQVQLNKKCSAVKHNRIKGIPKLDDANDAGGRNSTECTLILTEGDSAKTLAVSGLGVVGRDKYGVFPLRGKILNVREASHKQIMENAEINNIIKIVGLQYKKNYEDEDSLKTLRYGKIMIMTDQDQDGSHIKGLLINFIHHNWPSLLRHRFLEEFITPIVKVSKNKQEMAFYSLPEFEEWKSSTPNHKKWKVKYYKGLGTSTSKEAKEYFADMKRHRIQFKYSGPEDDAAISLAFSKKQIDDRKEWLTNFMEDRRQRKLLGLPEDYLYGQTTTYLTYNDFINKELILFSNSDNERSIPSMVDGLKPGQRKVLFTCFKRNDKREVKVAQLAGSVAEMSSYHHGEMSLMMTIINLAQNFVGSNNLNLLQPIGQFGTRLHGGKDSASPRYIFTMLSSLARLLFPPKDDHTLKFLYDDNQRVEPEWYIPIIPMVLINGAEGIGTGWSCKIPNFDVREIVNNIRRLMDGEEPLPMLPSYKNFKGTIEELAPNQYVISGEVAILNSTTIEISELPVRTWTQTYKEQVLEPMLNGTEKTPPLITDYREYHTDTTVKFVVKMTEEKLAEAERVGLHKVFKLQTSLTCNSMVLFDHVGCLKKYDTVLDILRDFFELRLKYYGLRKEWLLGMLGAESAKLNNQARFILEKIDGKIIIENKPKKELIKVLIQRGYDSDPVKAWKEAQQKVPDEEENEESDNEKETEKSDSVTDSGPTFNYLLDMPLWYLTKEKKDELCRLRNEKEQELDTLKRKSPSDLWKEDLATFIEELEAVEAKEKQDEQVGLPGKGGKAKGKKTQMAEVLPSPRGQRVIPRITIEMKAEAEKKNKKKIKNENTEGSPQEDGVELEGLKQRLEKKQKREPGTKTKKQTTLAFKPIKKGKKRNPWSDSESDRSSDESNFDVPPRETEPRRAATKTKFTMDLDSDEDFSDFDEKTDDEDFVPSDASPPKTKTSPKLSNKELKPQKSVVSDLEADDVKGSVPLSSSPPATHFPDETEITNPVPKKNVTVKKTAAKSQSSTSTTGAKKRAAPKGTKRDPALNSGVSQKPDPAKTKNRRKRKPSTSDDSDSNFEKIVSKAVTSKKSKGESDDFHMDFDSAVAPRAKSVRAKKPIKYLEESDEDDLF

[5] = target: DNA topoisomerase 2-alpha (Homo sapiens) (UniProt P11388); experiment: Poison activity at human recombinant topoisomerase-2 alpha expressed in Escherichia coli assessed as generation of linear DNA using supercoiled pBR322 DNA at 8 uM after 60 mins by ethidium bromide staining based agarose gel electrophoresis
[6] = target: DNA topoisomerase 2-alpha (Homo sapiens) (UniProt P11388); experiment: Inhibition of human recombinant topoisomerase-2 alpha expressed in Escherichia coli assessed as reduction in supercoiled pBR322 DNA relaxation after 60 mins by ethidium bromide staining based agarose gel electrophoresis
[7] = target: DNA topoisomerase 2-alpha (Homo sapiens) (UniProt P11388); experiment: Poison activity at human recombinant topoisomerase-2 alpha expressed in Escherichia coli assessed as generation of linear DNA using supercoiled pBR322 DNA at 100 to 200 uM after 60 mins by ethidium bromide staining based agarose gel electrophoresis
[8] = test system: Salmon testes DNA; experiment: Binding affinity to Salmon testis DNA assessed as drug-DNA complex formation at drug:DNA ratio of 0.08 at 310 to 380 nanometer by linear flow dichroism method; type: nucleic-acid assay; conditions: Salmonidae

Row | GI50 [1] | GI50 [2] | GI50 [3] | inhibition [4] | inhibition [6] | Activity [8] | SMILES | Activity [5] | Activity [7]
1 | > 50 µM | > 50 µM | > 50 µM | – | – | – | CN(C)CCN1CCN(C(=O)c2cnc3ccc4ccccc4c3c2)CC1 | – | –
2 | ≥ 50 µM | ≥ 50 µM | > 50 µM | – | – | – | CCOC(=O)c1cnc2ccc3ccccc3c2c1 | – | –
3 | – | – | – | Active | – | – | COc1cc(NS(C)(=O)=O)ccc1Nc1c2ccccc2nc2ccccc12 | Active | –
4 | > 50 µM | 32.5 µM | > 50 µM | – | – | – | O=C(NCCN1CCOCC1)c1cnc2c(ccc3cc4c(cc32)OCCO4)c1 | – | –
5 | 39.4 µM | 33.8 µM | > 50 µM | – | – | – | CN(C)CCN1CCN(C(=O)c2cnc3c(ccc4cc5c(cc43)OCCO5)c2)CC1 | – | –
6 | > 50 µM | > 50 µM | > 50 µM | – | – | – | CCOC(=O)c1cnc2c(ccc3cc4c(cc32)OCCO4)c1 | – | –
7 | 32.2 µM | 29.8 µM | > 50 µM | – | – | – | CN(C)CCNC(=O)c1cnc2c(ccc3ccccc32)c1 | – | –
8 | > 50 µM | 30 µM | > 50 µM | – | – | – | CN(C)CCNC(=O)c1cnc2c(ccc3cc4c(cc32)OCCO4)c1 | – | –
9 | > 50 µM | > 50 µM | > 50 µM | – | – | – | O=C(NCCN1CCOCC1)c1cnc2c(ccc3ccccc32)c1 | – | –
10 | > 50 µM | > 50 µM | > 50 µM | – | – | – | O=C(NCCN1CCOCC1)c1cnc2ccc3ccccc3c2c1 | – | –
11 | > 50 µM | > 50 µM | > 50 µM | – | – | – | CN(C)CCN1CCN(C(=O)c2cnc3c(ccc4ccccc43)c2)CC1 | – | –
12 | ≥ 50 µM | > 50 µM | > 50 µM | – | – | – | CCOC(=O)c1cnc2c(ccc3ccccc32)c1 | – | –
13 | 27.8 µM | 24.1 µM | > 50 µM | – | Dose-dependent effect | Active | CN(C)CCNC(=O)c1cnc2ccc3ccccc3c2c1 | – | inactive
